Paper PMC3624020 (Nature communications, 2011)

Tests used:
[1] = tested on: sigma-2 receptors in hepatic membrane homogenates; assay: blocking of WC-21 photoaffinity labeling of the ~24 kD protein band; format: binding; conditions: rat liver membrane homogenates, photo cross-linked with WC-21, western blot
[2] = tested on: PGRMC1 in A549 lung cancer cells; conditions: ref [33], [37]; cited from earlier work

SMILES: COc1cc2c(cc1OC)CN(CCCCNC(=O)c1cc(C)ccc1OC)CC2 [RHM-1, N-[4-(3,4-dihydro-6,7-dimethoxyisoquinolin-2(1H)-yl)butyl]-2-methoxy-5-methylbenzamide]
- blocking of WC-21 labeling of the ~24 kD protein band [1]: blocked

SMILES: Cc1ccccc1N=C(N)Nc1ccccc1C [DTG]
- blocking of WC-21 labeling of the ~24 kD protein band [1]: blocked

SMILES: Cc1ccc2c(c1)[C@H]1CN(C)CC[C@H]1N2C(=O)CSc1nnnn1-c1ccc(Cl)cc1 [AG-205]
- upregulation of PGRMC1 [2]: induced an upregulation
